The assay has as its target T1, Human autotaxin enzyme (Homo sapiens, UniProt Q13822).
T1 construct: purchased R&D System
Briefly: Evaluation of autotaxin inhibitor, 18:0 Lyso PC / choline assay (Test Example 2). Format: biochemical. How it is done: Solution B containing 100 mM Tris-HCl buffer (pH7.5), 150 mM NaCl, 5 mM MgCl2, and 0.05% Triton X-100 was prepared. Human autotaxin enzyme (purchased from R&D System) was diluted with Solution B, and 2.5 μl of which was added to a solution of test compound in DMSO. Furthermore, 2.5 μl of 200 μM 18:0 Lyso PC (purchased from Avanti Polar Lipids) in Solution B was added and allowed to react at room temperature for 2 hours. After completion of the reaction, 15 μl of the coline assay reagent. (100 mM Tris-HCl buffer (pH7.5), 5 mM. MgCl2, 77 μg/ml coline oxidase, 10 μg/ml peroxydase, 25μM 10-acetyl-3,7-dihydroxyphenoxazine, and excess autotaxin inhibitor) was added and allowed to react at room temperature for 20 minutes. The fluorescent dye Resorufin, which was produced by the reaction, was detected. The fluorescence was detected using ViewLux
(PerkinElmer, Inc.) with a excitation wavelength of 531 nm and a fluorescence wavelength of 598 nm.
The percent inhibition of the test compound was calculated by assuming the sample with no test compound as 0% inhibition and the sample with no enzyme as 100% inhibition, and the percent inhibitions at different concentrations of the test compound were plotted to obtain a concentration-dependent curve.

The mark [1] stands for this setting: human autotaxin enzyme, 18:0 Lyso PC substrate, choline assay, room temperature 2 hours, read-out: Inhibitor activity (IC50).
Where [2] appears, read: autotaxin inhibition, IC50 class, read-out: Inhibitor activity.

Structures are written as SMILES. Where two headings read alike, the source gives them in different places.

Regarding `CCCCCn1c(-c2ccc(Cl)cc2)cc(=O)n(CC(=O)NC(Cc2ccccc2)C(=O)O)c1=O` (stereo not drawn) [Compound I-0151], the IC50 under setting [1] was in the range of 100 to 1000 nM.
Take `CCCCCNc1nc(-c2ccc(C(F)(F)F)cc2)cc(=O)n1Cc1cccc(C(=O)O)c1` [Compound I-0012]: under setting [1], the IC50 fell in the range of 10 to 100 nM.
The same measure, in the same setting: next, `CCCCCNc1nc(-c2ccc(C(F)(F)F)cc2)cc(=O)n1Cc1ccc(C(=O)NCC(=O)O)cc1` [Compound I-0018]: 100 to 1000 nM.
With `N#CC1(NC(=O)Cn2c(CCC(F)(F)F)nc(-c3ccc(Cl)cc3)cc2=O)CC1` [Compound I-0207], the IC50 under setting [1] is at least 1000 nM.
In the case of `O=C(Cn1c(CCCC(F)(F)F)nc(-c2ccc(C(F)(F)F)cc2)cc1=O)NCc1nn[nH]n1` [Compound I-0331], the IC50 under setting [1] was below 10 nM.
On the same count and under the same terms, next, `CCCCCc1nc(-c2ccc(Cl)cc2)[nH]c(=O)c1Cc1ccc(C(=O)O)cc1` [Compound I-0002]: 100 to 1000 nM.
Regarding `Cc1nc(-c2ccc(Cl)cc2NC(=O)C2CC2)cc(=O)n1CC(=O)NC1(C)CC1` [Compound I-0401], the IC50 under setting [1] fell in the range of 10 to 100 nM.
For the molecule `CCS(=O)(=O)N1CCN(C(=O)Cn2cnc(-c3ccc(Cl)cc3NC(=O)C(C)(C)C)cc2=O)CC1` [Compound I-0490], under setting [1], the IC50 lay in the range of 100 to 1000 nM.
Same read-out and setting: next, `O=C(c1cccc(Cn2c(CCCC(F)(F)F)nc(-c3ccc(Cl)cc3)cc2=O)c1)N1CCC(CO)CC1` [Compound I-0159]: below 10 nM.
As to `COC(=O)Nc1cc(Cl)ccc1-c1cc(=O)n(CC(=O)N2CC(C(C)(C)O)C2)c(C)n1` [Compound I-0441], the IC50 under setting [1] is 100 to 1000 nM.
For `Cc1nc(-c2ccc(Cl)cc2NC(=O)C2CC2)cc(=O)n1CC(=O)O` [Compound I-0259], the IC50 under setting [1] is at least 1000 nM.
The same measure, in the same setting: next, `CC(C)(O)CN1CCN(C(=O)Cn2c(CCCC(F)(F)F)nc(-c3ccc(C(F)(F)F)cc3)cc2=O)CC1` [Compound I-0357]: 100 to 1000 nM.
For `CSc1nc(-c2ccc(Cl)cc2NC(C)=O)cc(=O)n1CC(=O)NC(C)(C)CO` [Compound I-0252], under setting [2], the IC50 is 10 to 100 nM.
On to `COC(=O)Cn1c(CCCC(F)(F)F)nc(-c2ccc(C(F)(F)F)nc2)cc1=O` [Compound I-0253], for which the IC50 under setting [2] lay in the range of 100 to 1000 nM.
As for `O=C(c1cccc(Cn2c(CCCC(F)(F)F)nc(-c3ccc(Cl)cc3)cc2=O)c1)N1CCSCC1` [Compound I-0153], the IC50 under setting [1] is 10 to 100 nM.
For the molecule `O=C(NCc1cc(=O)[nH]o1)c1cccc(Cn2c(CCCC(F)(F)F)nc(-c3ccc(Cl)cc3)cc2=O)c1` [Compound I-0170], under setting [1], the IC50 was 10 to 100 nM.
`COCCCNC(=O)c1cccc(Cn2c(CCCC(F)(F)F)nc(-c3ccc(Cl)cc3)cc2=O)c1` [Compound I-0161]: the IC50 under setting [1] lay in the range of 100 to 1000 nM.
On to `Cc1nc(-c2ccc(Cl)cc2NC(=O)C2CC2)cc(=O)n1CC(=O)NCC1(CO)COC1` [Compound I-0300], for which, under setting [1], the IC50 fell in the range of 10 to 100 nM.
Same read-out and setting: as for `CCCCCc1nc(-c2ccc(Cl)cc2)cc(=O)n1CC(=O)N[C@@H]1CN2CCC1CC2` [Compound I-0078], the figure is at least 1000 nM.
As to `CC(=O)Nc1cc(Cl)ccc1-c1cc(=O)n(CC(=O)OC(C)(C)C)cn1` [Compound I-0244], the IC50 under setting [2] was 10 to 100 nM.
Take `CC(=O)Nc1cc(Cl)ccc1-c1cc(=O)n(CC(=O)NC2(C#N)CC2)cn1` [Compound I-0249]: the IC50 under setting [2] lay in the range of 100 to 1000 nM.
For `O=C(Cn1cnc(-c2ccc(Cl)cc2)cc1=O)NCCCNC(=O)c1ccc2[nH]nnc2c1` [Compound I-0460], the IC50 under setting [1] is at least 1000 nM.
On to `COC(=O)Nc1cc(Cl)ccc1-c1cc(=O)n(CC(=O)NCC2(CO)COC2)c(C)n1` [Compound I-0286], for which, under setting [1], the IC50 is 10 to 100 nM.
With `COC(=O)Nc1cc(Cl)ccc1-c1cc(=O)n(CC(=O)NC2(c3nc(C)no3)CC2)c(C)n1` [Compound I-0467], the IC50 under setting [1] was in the range of 10 to 100 nM.
In the case of `O=C(Cn1cnc(-c2ccc(Cl)cc2)cc1=O)NCCNC(=O)c1ccc2nn[nH]c2c1` [Compound I-0443], the IC50 under setting [1] was at least 1000 nM.
As to `CCCCCc1nc(-c2ccc(Cl)cc2)cc(=O)n1CC(=O)N[C@@H](CCc1ccccc1)C(=O)O` [Compound I-0101], under setting [1], the IC50 lay within 10 to 100 nM.
Turning to `CN(CC#N)C(=O)Cn1c(CCCC(F)(F)F)nc(-c2ccc(C(F)(F)F)cc2)cc1=O` [Compound I-0297], the IC50 under setting [1] lay within 10 to 100 nM.
As to `CC(C)(C)C(=O)Nc1cc(Cl)ccc1-c1cc(=O)n(CC(=O)NCC(N)=O)cn1` [Compound I-0409], under setting [1], the IC50 was in the range of 100 to 1000 nM.
Consider `CN(CC(N)=O)C(=O)c1cccc(Cn2c(CCCC(F)(F)F)nc(-c3ccc(Cl)cc3)cc2=O)c1` [Compound I-0191], for which the IC50 under setting [1] is 100 to 1000 nM.
Regarding `CC1(C)CN(c2cc(=O)n(CC(=O)NC3(C#N)CC3)c(CCCC(F)(F)F)n2)C1` [Compound I-0236], the IC50 under setting [1] is at least 1000 nM.
`CCCCCc1nc(-c2ccc(Cl)cc2)cc(=O)n1CC(=O)N1CCCCC1C(=O)O` (stereo not drawn) [Compound I-0049]: under setting [1], the IC50 fell in the range of 100 to 1000 nM.
With `CCCCCc1nc(-c2ccc(Cl)cc2)cc(=O)n1CC(=O)NCC(=O)N1CCC(C(=O)O)CC1` [Compound I-0059], under setting [1], the IC50 fell in the range of 10 to 100 nM.
In the case of `O=C(Cn1c(CCCC(F)(F)F)nc(-c2ccc(C(F)(F)F)cc2)cc1=O)NC1(c2ccccn2)CC1` [Compound I-0348], the IC50 under setting [1] is 10 to 100 nM.
Regarding `O=C(Cn1c(CCCC(F)(F)F)nc(-c2ccc(Cl)cc2)cc1=O)NCCOCCOCCO` [Compound I-0140], the IC50 under setting [1] lay within 100 to 1000 nM.
`O=C(NCCO)c1cccc(Cn2c(CCCC(F)(F)F)nc(-c3ccc(Cl)cc3)cc2=O)c1` [Compound I-0172]: the IC50 under setting [1] is 100 to 1000 nM.
Same read-out and setting: next, `CC(C)(C)C(=O)Nc1cc(Cl)ccc1-c1cc(=O)n(Cc2cccc(C(=O)Nc3cnccc3O)c2)cn1` [Compound I-0491]: 100 to 1000 nM.
For the molecule `CCCCCc1nc(-c2ccc(Cl)cc2)cc(=O)n1CC(=O)N[C@@H]1CCN(C(C)=O)C1` [Compound I-0097], the IC50 under setting [1] lay within 100 to 1000 nM.
For `O=C1CCN(C(=O)c2cccc(Cn3c(CCCC(F)(F)F)nc(-c4ccc(Cl)cc4)cc3=O)c2)CCN1` [Compound I-0179], the IC50 under setting [1] was 10 to 100 nM.
Regarding `CCCCCc1nc(-c2ccc(Cl)cc2)cc(=O)n1CC(=O)OC` [Compound I-0023], the IC50 under setting [1] is 10 to 100 nM.
As for `COC(=O)Nc1cc(Cl)ccc1-c1cc(=O)n(CC(=O)OC(C)(C)C#N)c(C)n1` [Compound I-0375], the IC50 under setting [1] is below 10 nM.
Regarding `COC(=O)Nc1cc(Cl)ccc1-c1cc(=O)n(CC(=O)N(C)C(C)(C)C)c(C)n1` [Compound I-0269], under setting [1], the IC50 was 10 to 100 nM.
With `COC(=O)Nc1cc(Cl)ccc1-c1cc(=O)n(CC(=O)N2CCC(CC(=O)OC(C)(C)C)CC2)c(C)n1` [Compound I-0494], under setting [1], the IC50 was below 10 nM.
As for `NS(=O)(=O)CCNC(=O)Cn1c(CCCC(F)(F)F)nc(-c2ccc(Cl)cc2)cc1=O` [Compound I-0133], the IC50 under setting [1] lay in the range of 10 to 100 nM.
Take `CC(C)(C)OC(=O)NCn1c(CCCC(F)(F)F)nc(-c2ccc(Cl)cc2)cc1=O` [Compound I-0283]: the IC50 under setting [1] was in the range of 100 to 1000 nM.
With `CC(C)(C)C(=O)Nc1cc(Cl)ccc1-c1cc(=O)n(Cc2cccc(C(=O)N3CCC4(COC4)C3)c2)cn1` [Compound I-0495], the IC50 under setting [1] was in the range of 10 to 100 nM.
In the case of `N#CC1(NC(=O)Cn2c(COCC(F)(F)F)nc(-c3ccc(Cl)cc3)cc2=O)CC1` [Compound I-0210], under setting [1], the IC50 fell in the range of 10 to 100 nM.
Turning to `CCCCCNc1nc(-c2ccc(C(F)(F)F)cc2)cc(=O)n1Cc1cccc(C(=O)NCC(=O)O)c1` [Compound I-0015], the IC50 under setting [1] fell in the range of 10 to 100 nM.
As for `COC(=O)Nc1cc(Cl)ccc1-c1cc(=O)n(CC(=O)NCc2c[nH]nn2)c(C)n1` [Compound I-0421], the IC50 under setting [1] is below 10 nM.

Values taken from patent US10183949B2, “Pyrimidinone derivative having autotaxin-inhibitory activity” (The University of Tokyo, priority 2014, dated 2019).
